Tests used:
Format in all cases: in vivo
[1] = system: Yellow Fever Mosquito (Aedes aegypti, AEDSAE); assay: Bioassay on Yellow Fever Mosquito (YFM), 96-well plate larval assay; conditions: Species YFM (Yellow Fever Mosquito)
Procedure: Certain molecules disclosed in this document were tested against YFM using procedures described in the following paragraph. In the reporting of the results, the “GPA & YFM Rating Table” was used (See Table Section).
Master plates containing 400 μg of a molecule dissolved in 100 μL of dimethyl sulfoxide (DMSO) (equivalent to a 4000 ppm solution) are used. A master plate of assembled molecules contains 15 μL per well. To this plate, 135 μL of a 90:10 water/acetone mixture is added to each well. A robot is programmed to dispense 15 μL aspirations from the master plate into an empty 96-well shallow plate (“daughter” plate). There are 6 reps (“daughter” plates) created per master. The created “daughter” plates are then immediately infested with YFM larvae.
The day before plates are to be treated, mosquito eggs are placed in Millipore water containing liver powder to begin hatching (4 g. into 400 mL). After the “daughter” plates are created using the robot, they are infested with 220 μL of the liver powder/larval mosquito mixture (about 1 day-old larvae). After plates are infested with mosquito larvae, a non-evaporative lid is used to cover the plate to reduce drying. Plates are held at room temperature for 3 days prior to grading. After 3 days, each well is observed and scored based on mortality. The results are indicated in the table entitled “Table ABC: Biological Results” (See Table Section).

[2] = system: Cabbage Looper (Trichoplusia ni, TRIPNI); assay: Bioassay on Cabbage Looper (CL), 128-well diet tray assay; conditions: Trichoplusia ni; Species CL (Cabbage Looper); read-out: CL (Biological Results, rating)
Procedure, shortened: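 Using eight wells per molecule, artificial diet was dosed at 50 μg/cm^2 with compound in 90:10 acetone-water and dried before one to five second-instar larvae were added per well. Covered vented trays were kept at 25° C. with 14:10 light-dark for five to seven days, then per-well percent mortality was recorded and averaged.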

[3] = system: Beet Armyworm (Spodoptera exigua, LAPHEG); assay: Bioassay on Beet Armyworm (BAW), 128-well diet tray assay; conditions: Species BAW (Beet Armyworm), read-out: BAW (Biological Results, rating)
Procedure, shortened: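 Artificial diet surface-treated with 50 μg/cm^2 test molecule in 90:10 acetone-water, dried, then infested with one to five second instar larvae per well. Held covered and vented at 25° C., 14:10 light-dark for five to seven days; percent mortality recorded per well and averaged over eight wells.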

Structure (SMILES)	YFM (Biological Results, rating) [1]	pest or weed control at 50 µg/cm2 [2] [%]	pest or weed control at 50 µg/cm2 [3] [%]
O=C(Nc1c(F)cccc1F)c1cc(NC(=O)[C@H]2[C@H](c3ccc(C(F)(F)F)cc3)C2(Cl)Cl)ccc1Cl (relative stereo) [F83, trans-2-Chloro-5-(2,2-dichloro-3-(4-(trifluoromethyl)phenyl)cyclopropane-1-carboxamido)-N-(2,6-difluorophenyl)benzamide]	A (80-100)	50 to 100	50 to 100
CN(C(=O)c1cc(NC(=O)[C@H]2[C@H](c3cc(C(F)(F)F)cc(C(F)(F)F)c3)C2(Cl)Cl)ccc1Cl)c1ccc(F)cc1 (relative stereo) [F85, trans-5-(3-(3,5-Bis(trifluoromethyl)phenyl)-2,2-dichlorocyclopropane-1-carboxamido)-2-chloro-N-(4-fluorophenyl)-N-methylbenzamide]	A (80-100)	50 to 100	50 to 100
CN(C(=O)c1cc(NC(=O)[C@H]2[C@H](c3cc(Cl)cc(C(F)(F)F)c3)C2(Cl)Cl)ccc1Cl)c1ccc(F)cc1 (relative stereo) [F88, trans-2-Chloro-5-(2,2-dichloro-3-(3-chloro-5-(trifluoromethyl)phenyl)cyclopropane-1-carboxamido)-N-(4-fluorophenyl)-N-methylbenzamide]	B (More than 0-Less than 80)	50 to 100	50 to 100
CN(C(=O)c1cc(NC(=O)[C@H]2[C@H](c3cc(Br)cc(Br)c3)C2(Cl)Cl)ccc1Cl)c1ccc(F)cc1 (relative stereo) [F91, trans-2-Chloro-5-(2,2-dichloro-3-(3,5-dibromophenyl)cyclopropane-1-carboxamido)-N-(4-fluorophenyl)-N-methylbenzamide]	B (More than 0-Less than 80)	50 to 100	50 to 100
O=C(Nc1ccc(Cl)c(C(=O)N(CC(F)(F)F)c2ccc(F)cc2)c1)[C@H]1[C@H](c2cc(Cl)cc(Cl)c2)C1(Cl)Cl (relative stereo) [F100, trans-2-Chloro-5-(2,2-dichloro-3-(3,5-dichlorophenyl)cyclopropane-1-carboxamido)-N-(4-fluorophenyl)-N-(2,2,2-trifluoroethyl)benzamide]	A (80-100)	50 to 100	50 to 100
Cc1cc(Cl)cc([C@H]2[C@H](C(=O)Nc3ccc(Cl)c(C(=O)Nc4ccc(F)cc4)c3)C2(Cl)Cl)c1 (relative stereo) [F116, trans-2-Chloro-5-(2,2-dichloro-3-(3-chloro-5-methylphenyl)cyclopropane-1-carboxamido)-N-(4-fluorophenyl)benzamide]	A (80-100)	50 to 100	50 to 100
Cc1cc(Cl)cc([C@H]2[C@H](C(=O)Nc3ccc(Cl)c(C(=O)Nc4c(F)cccc4F)c3)C2(Cl)Cl)c1 (relative stereo) [F118, trans-2-Chloro-5-(2,2-dichloro-3-(3-chloro-5-methylphenyl)cyclopropane-1-carboxamido)-N-(2,6-difluorophenyl)benzamide]	A (80-100)	50 to 100	50 to 100
O=C(Nc1ccc(F)cc1)c1cc(NC(=O)[C@H]2[C@H](c3cc(Cl)cc(Cl)c3)C2(Br)Br)ccc1Cl (relative stereo) [F122, trans-2-Chloro-5-(2,2-dibromo-3-(3,5-dichlorophenyl)cyclopropane-1-carboxamido)-N-(4-fluorophenyl)benzamide]	B (More than 0-Less than 80)	50 to 100	50 to 100
Cc1cc([C@H]2[C@H](C(=O)Nc3ccc(Cl)c(C(=O)Nc4ccc(F)cc4)c3)C2(Cl)Cl)cc(Cl)c1Cl (relative stereo) [F123, trans-2-Chloro-5-(2,2-dichloro-3-(3,4-dichloro-5-methylphenyl)cyclopropane-1-carboxamido)-N-(4-fluorophenyl)benzamide]	B (More than 0-Less than 80)	50 to 100	50 to 100
O=C(Nc1ccc(F)cc1)c1cc(NC(=O)[C@H]2[C@H](c3cc(Cl)cc(Cl)c3)C2(Cl)Cl)ccc1OC(F)(F)F (relative stereo) [F135, trans-5-(2,2-Dichloro-3-(3,5-dichlorophenyl)cyclopropane-1-carboxamido)-N-(4-fluorophenyl)-2-(trifluoromethoxy)benzamide]	A (80-100)	50 to 100	50 to 100
O=C(Nc1ccc(F)cc1)c1cc(Cl)cc(NC(=O)[C@H]2[C@H](c3cc(Cl)cc(Cl)c3)C2(Cl)Cl)c1 (relative stereo) [F136, trans-3-Chloro-5-(2,2-dichloro-3-(3,5-dichlorophenyl)cyclopropane-1-carboxamido)-N-(4-fluorophenyl)benzamide]	A (80-100)	50 to 100	50 to 100
O=C(Nc1c(F)cccc1F)c1cc(NC(=O)[C@H]2[C@H](c3ccc(F)c(Cl)c3)C2(Cl)Cl)ccc1Cl (relative stereo) [F161, trans-2-Chloro-5-(2,2-dichloro-3-(3-chloro-4-fluorophenyl)cyclopropane-1-carboxamido)-N-(2,6-difluorophenyl)benzamide]	A (80-100)	50 to 100	50 to 100
O=C(Nc1c(F)cccc1F)c1cc(NC(=O)[C@H]2[C@H](c3cc(Cl)cc(Br)c3)C2(Cl)Cl)ccc1Cl (relative stereo) [F164, trans-5-(3-(3-Bromo-5-chlorophenyl)-2,2-dichlorocyclopropane-1-carboxamido)-2-chloro-N-(2,6-difluorophenyl)benzamide]	A (80-100)	50 to 100	50 to 100
CN(C)c1ccc(NC(=O)c2cc(NC(=O)[C@H]3[C@H](c4cc(Cl)cc(Cl)c4)C3(Cl)Cl)ccc2Cl)cc1 (relative stereo) [F171, trans-2-Chloro-5-(2,2-dichloro-3-(3,5-dichlorophenyl)cyclopropane-1-carboxamido)-N-(4-(dimethylamino)phenyl)benzamide]	A (80-100)	50 to 100	50 to 100
Nc1ccc(NC(=O)c2cc(NC(=O)[C@H]3[C@H](c4cc(Cl)cc(Cl)c4)C3(Cl)Cl)ccc2Cl)cc1F (relative stereo) [F174, trans-N-(4-Amino-3-fluorophenyl)-2-chloro-5-(2,2-dichloro-3-(3,5-dichlorophenyl)cyclopropane-1-carboxamido)benzamide]	A (80-100)	50 to 100	50 to 100
Nc1ccc(NC(=O)c2cc(NC(=O)[C@H]3[C@H](c4cc(Cl)cc(Cl)c4)C3(Cl)Cl)ccc2Cl)c(F)c1 (relative stereo) [F175, trans-N-(4-amino-2-fluorophenyl)-2-chloro-5-(2,2-dichloro-3-(3,5-dichlorophenyl)cyclopropane-1-carboxamido)benzamide]	A (80-100)	50 to 100	50 to 100
CNc1ccc(NC(=O)c2cc(NC(=O)[C@H]3[C@H](c4cc(Cl)cc(Cl)c4)C3(Cl)Cl)ccc2Cl)cc1F (relative stereo) [F176, trans-2-Chloro-5-(2,2-dichloro-3-(3,5-dichlorophenyl)cyclopropane-1-carboxamido)-N-(3-fluoro-4-(methylamino)phenyl)benzamide]	A (80-100)	50 to 100	50 to 100
CNc1ccc(NC(=O)c2cc(NC(=O)[C@H]3[C@H](c4cc(Cl)cc(Cl)c4)C3(Cl)Cl)ccc2Cl)c(F)c1 (relative stereo) [F177, trans-2-Chloro-5-(2,2-dichloro-3-(3,5-dichlorophenyl)cyclopropane-1-carboxamido)-N-(2-fluoro-4-(methylamino)phenyl)benzamide]	A (80-100)	50 to 100	50 to 100
COc1c(Cl)cc([C@H]2[C@H](C(=O)Nc3ccc(Cl)c(C(=O)Nc4ccccc4)c3)C2(Cl)Cl)cc1Cl (relative stereo) [F179, trans-2-chloro-5-(2,2-dichloro-3-(3,5-dichloro-4-methoxyphenyl)cyclopropane-1-carboxamido)-N-phenylbenzamide]	B (More than 0-Less than 80)	50 to 100	50 to 100
